Molecular target: T1, mouse Tas2r108 (Mus musculus, UniProt Q9JKT3)
T1 construct: expressed in transfected cells; host or cells: HEK293T-Gα16gust44
T1 sequence (Q9JKT3 1-297): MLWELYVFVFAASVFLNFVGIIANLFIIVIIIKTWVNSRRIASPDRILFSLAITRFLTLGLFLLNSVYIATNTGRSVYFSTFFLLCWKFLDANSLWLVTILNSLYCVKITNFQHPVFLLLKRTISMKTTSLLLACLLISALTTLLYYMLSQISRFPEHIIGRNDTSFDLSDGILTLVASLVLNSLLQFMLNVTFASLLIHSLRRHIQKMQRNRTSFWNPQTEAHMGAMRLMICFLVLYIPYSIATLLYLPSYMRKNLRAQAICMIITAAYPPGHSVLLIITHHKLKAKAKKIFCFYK
Test: Calcium imaging assay (FLIPR), HEK293T-Gα16gust44 cells transfected with mouse Tas2r108
Type: cell-based
Settings: for Δ F/F: Tas2r108
Method: This set of bile acids was chosen because of their commercial availability in high purities, their diversity within the class of bile acids and their previous detection and quantitation in human blood. Stock solutions were prepared in DMSO.
As basal growth medium for the HEK293T-Gα16gust44 cell line[17],[59] served Dulbecco’s modified eagle medium (DMEM) (Thermo Fisher Scientific, Darmstadt, Germany) supplemented with 10 % fetal bovine serum (Sigma-Aldrich, Steinheim, Germany), 2 mM L-glutamine (Sigma-Aldrich, Steinheim, Germany), 100 units/ml penicillin (Sigma Aldrich, Steinheim, Germany) and 100 µg/ml streptomycin (Sigma Aldrich, Steinheim, Germany). Growth conditions were 37 °C, 5 % CO2 and saturated air-humidity[60].
HEK293T-Gα16gust44 cells were seeded on poly-D-lysine (10 µg/ml) coated 96-well plates to reach a confluence of 40-60 % the next day. For transient transfection 150 ng of plasmid DNA containing the receptor of interest and 0.3 µl lipofectamine 2000 (Thermo Fisher Scientific, Darmstadt, Germany) per well were used and transfection took place according to the manual of lipofectamine 2000. […] The empty vector DNA (mock) was transfected as negative control[14],[41].
Cells were loaded using the calcium-sensitive fluorescent dye Fluo-4-AM (Abcam, Cambridge, Great Britain) in the presence of 2.5 mM probenecid (Sigma-Aldrich, Steinheim, Germany) the day after transfection[13],[41]. 1 h after loading, cells were washed with C1 buffer using a BioTek Cell Washer, incubated in the dark for half an hour and washed again. For automated agonist application and measurement of fluorescence changes, a FLIPR^TETRA device (Molecular Devices, San José, United States) was used. Viability of cells was tested by application of 100 nM Somatostatin 14 (Bachem, Bubendorf, Switzerland)[42].
Measured data were negative control corrected by subtracting the signal of the mock-transfected cells and exported to Microsoft Excel using the FLIPR software ScreenWorks 4.2. In Microsoft Excel software, standardization of maximum fluorescence intensities to the basal fluorescence and normalization to the buffer-only control was done to calculate the relative fluorescence changes (ΔF/F).
Initial screening experiments performed in duplicate wells were confirmed by at least one replication and representative traces were selected for display. All dose-response relationships were determined by three independent experiments (biological replicates) performed in duplicates (technical replicates). Threshold concentrations, defined as lowest substance concentrations leading to statistically significant elevated fluorescence changes in receptor-transfected cells compared with empty vector-transfected cells, were determined using SigmaPlot with Student’s t-test to evaluate statistical significance (p < 0.01).

Q: How did the “Δ F/F” value (conc. 0,01 mM) turn out when C[C@H](CCC(=O)NCC(=O)O)[C@H]1CC[C@H]2[C@@H]3[C@H](O)C[C@@H]4C[C@H](O)CC[C@]4(C)[C@H]3C[C@H](O)[C@]12C [Glycocholic Acid, glycocholic acid] was run?
A: 0.0107

Q: What about the “Δ F/F” value (conc. 0,1 mM) of the same compound?
A: 0.0182

Q: What about the “Δ F/F” value (conc. 0,03 mM) of the same compound?
A: 0.00676

Q: What about the “Δ F/F” value (conc. 0,3 mM) of the same compound?
A: 0.06222

Q: And the “Δ F/F” value (conc. 0,001 mM)?
A: 0.002806

Q: What about the “Δ F/F” value (conc. 1 mM) of the same compound?
A: 0.4313

Q: And the “Δ F/F” value (conc. 0,003 mM)?
A: 0.003344

Q: What about the RLU (Time 0 s) of the same compound?
A: 0 RLU

Q: What about the RLU (Time 2 s) of the same compound?
A: 7.69 RLU

Q: What about the RLU (Time 4 s) of the same compound?
A: 11.6885 RLU

Q: And the RLU (Time 6 s)?
A: 14.9144 RLU

Q: What about the RLU (Time 8 s) of the same compound?
A: 2.856 RLU

Q: And the RLU (Time 12 s)?
A: -20.1582 RLU

Q: And the RLU (Time 14 s)?
A: -24.1348 RLU

Q: And the RLU (Time 16 s)?
A: -22.3266 RLU

Q: What about the RLU (Time 18 s) of the same compound?
A: -18.1852 RLU

Q: What about the RLU (Time 137.562 s) of the same compound?
A: 194.213 RLU

Q: And the RLU (Time 143.562 s)?
A: 209.767 RLU

Q: What about the RLU (Time 149.562 s) of the same compound?
A: 181.475 RLU

Q: And the RLU (Time 155.562 s)?
A: 183.974 RLU

Q: What about the RLU (Time 161.562 s) of the same compound?
A: 173.161 RLU

Q: And the RLU (Time 167.562 s)?
A: 179.231 RLU

Q: And the RLU (Time 173.562 s)?
A: 187.201 RLU

Q: And the RLU (Time 179.562 s)?
A: 174.25 RLU

Q: What about the RLU (Time 185.562 s) of the same compound?
A: 178.039 RLU

Q: What about the RLU (Time 191.562 s) of the same compound?
A: 190.798 RLU

Q: And the RLU (Time 197.562 s)?
A: 173.368 RLU

Q: What about the RLU (Time 203.562 s) of the same compound?
A: 190.575 RLU

Q: And the RLU (Time 209.562 s)?
A: 197.772 RLU

Q: What about the RLU (Time 215.562 s) of the same compound?
A: 163.432 RLU

Q: What about the RLU (Time 221.562 s) of the same compound?
A: 153.254 RLU

Q: And the RLU (Time 227.562 s)?
A: 164.71 RLU

Q: And the RLU (Time 233.562 s)?
A: 163.97 RLU

Q: And the RLU (Time 239.562 s)?
A: 147.809 RLU

Q: And the RLU (Time 245.562 s)?
A: 173.351 RLU

Q: What about the RLU (Time 293.562 s) of the same compound?
A: 149.968 RLU

Q: And the RLU (Time 299.562 s)?
A: 165.311 RLU

Q: What about the RLU (Time 305.562 s) of the same compound?
A: 159.539 RLU

Q: What about the RLU (Time 311.562 s) of the same compound?
A: 142.659 RLU

Q: And the RLU (Time 317.562 s)?
A: 150.371 RLU

Q: What about the RLU (Time 323.562 s) of the same compound?
A: 171.186 RLU

Q: And the RLU (Time 329.562 s)?
A: 175.087 RLU

Q: And the RLU (Time 335.562 s)?
A: 172.597 RLU

Q: What about the RLU (Time 341.562 s) of the same compound?
A: 183.065 RLU

Q: What about the RLU (Time 347.562 s) of the same compound?
A: 201.017 RLU

Q: What about the RLU (Time 353.562 s) of the same compound?
A: 156.745 RLU

Q: And the RLU (Time 359.562 s)?
A: 154.549 RLU

Q: And the “Activation threshold concentration Tas2r108” value (p < 0.01 vs empty vector)?
A: 100 µM

Q: And the RLU (time 18.797 s)?
A: -15.9795 RLU

Q: What about the RLU (time 20.797 s) of the same compound?
A: -38.1063 RLU

Q: What about the RLU (time 22.797 s) of the same compound?
A: -53.0656 RLU

Q: And the RLU (time 24.797 s)?
A: -41.093 RLU

Q: What about the RLU (time 26.797 s) of the same compound?
A: 10.1284 RLU

Q: What about the RLU (time 28.797 s) of the same compound?
A: -11.2259 RLU

Q: And the RLU (time 30.797 s)?
A: 42.3249 RLU

Q: And the RLU (time 32.797 s)?
A: 14.625 RLU

Q: What about the RLU (time 34.797 s) of the same compound?
A: 31.6874 RLU

Q: What about the RLU (time 36.797 s) of the same compound?
A: 61.9173 RLU

Q: What about the RLU (time 38.797 s) of the same compound?
A: 95.7369 RLU

Q: What about the RLU (time 40.797 s) of the same compound?
A: 96.8837 RLU

Q: What about the RLU (time 42.797 s) of the same compound?
A: 120.977 RLU

Q: And the RLU (time 44.797 s)?
A: 126.004 RLU

Q: And the RLU (time 46.797 s)?
A: 150.942 RLU

Q: What about the RLU (time 48.797 s) of the same compound?
A: 139.074 RLU

Q: What about the RLU (time 50.797 s) of the same compound?
A: 165.429 RLU

Q: What about the RLU (time 52.797 s) of the same compound?
A: 178.894 RLU

Q: And the RLU (time 54.797 s)?
A: 165.569 RLU

Q: What about the RLU (time 56.797 s) of the same compound?
A: 184.08 RLU

Q: And the RLU (time 58.797 s)?
A: 203.839 RLU

Q: What about the RLU (time 60.797 s) of the same compound?
A: 208.856 RLU

Q: And the RLU (time 62.797 s)?
A: 198.008 RLU

Q: What about the RLU (time 64.797 s) of the same compound?
A: 192.835 RLU

Q: And the RLU (time 66.797 s)?
A: 228.59 RLU

Q: What about the RLU (time 68.797 s) of the same compound?
A: 198.902 RLU

Q: What about the RLU (time 70.797 s) of the same compound?
A: 190.075 RLU

Q: And the RLU (time 72.797 s)?
A: 224.267 RLU

Q: What about the RLU (time 74.797 s) of the same compound?
A: 237.802 RLU

Q: What about the RLU (time 76.797 s) of the same compound?
A: 195.521 RLU

Q: And the RLU (time 78.797 s)?
A: 205.632 RLU

Q: And the RLU (time 80.797 s)?
A: 224.221 RLU

Q: What about the RLU (time 82.797 s) of the same compound?
A: 233.724 RLU

Q: And the RLU (time 84.797 s)?
A: 213.598 RLU

Q: What about the RLU (time 86.797 s) of the same compound?
A: 226.297 RLU

Q: And the RLU (time 88.797 s)?
A: 230.997 RLU

Q: What about the RLU (time 90.797 s) of the same compound?
A: 224.416 RLU

Q: And the RLU (time 92.797 s)?
A: 254.391 RLU

Q: What about the RLU (time 94.797 s) of the same compound?
A: 247.364 RLU

Q: What about the RLU (time 96.797 s) of the same compound?
A: 231.951 RLU

Q: What about the RLU (time 98.797 s) of the same compound?
A: 231.597 RLU

Q: What about the RLU (time 100.797 s) of the same compound?
A: 210.393 RLU

Q: And the RLU (time 102.797 s)?
A: 230.574 RLU

Q: What about the RLU (time 104.797 s) of the same compound?
A: 222.002 RLU

Q: And the RLU (time 106.797 s)?
A: 222.39 RLU

Q: And the RLU (time 108.797 s)?
A: 212.16 RLU

Q: And the RLU (time 110.797 s)?
A: 216.252 RLU

Q: And the RLU (time 112.797 s)?
A: 216.052 RLU

Q: What about the RLU (time 114.797 s) of the same compound?
A: 221.895 RLU

Q: And the RLU (time 116.797 s)?
A: 215.342 RLU

Q: What about the RLU (time 118.797 s) of the same compound?
A: 209.462 RLU

Q: And the RLU (time 120.797 s)?
A: 222.728 RLU

Q: And the RLU (time 122.797 s)?
A: 206.205 RLU

Q: And the RLU (time 124.797 s)?
A: 193.188 RLU

Q: What about the RLU (time 126.797 s) of the same compound?
A: 207.494 RLU

Q: And the RLU (time 128.797 s)?
A: 210.082 RLU

Q: And the RLU (time 130.797 s)?
A: 216.943 RLU

Q: And the RLU (time 132.797 s)?
A: 210.174 RLU

Q: And the RLU (time 134.797 s)?
A: 194.975 RLU

Q: And the RLU (time 136.797 s)?
A: 218.165 RLU
